In ChEMBL document CHEMBL3879915, “Methods of inhibiting PRMT5” (2014):

Legend:
[1] = Antiproliferative activity against human Z138 cells assessed as inhibition of cell viability after 5 days by Cell-Titer Glo assay; assay type: functional, cell-based; conditions: Z-138, 120 h
[2] = biological target: Protein arginine N-methyltransferase 5 (Homo sapiens, UniProt O14744); experiment: Inhibition of PRMT5 in human Z138 cells assessed as decrease in di-methyl arginine levels after 96 hrs by Western blot method; assay type: cell-based
PRMT5/MEP50 complex = PRMT5/MEP50 complex (Homo sapiens, UniProt O14744); experiment: Inhibition of recombinant human fetal brain FLAG-tagged PRMT5/full length human testis 6His-tagged MEP50 expressed in baculovirus infected insect Sf9 cells using human histone H4 (1 to 15 residues) as substrate preincubated for 30 mins followed by [3H]-SAM addition
PRMT5/MEP50 complex, sequence (O14744 whole entry, the tested form may be a part): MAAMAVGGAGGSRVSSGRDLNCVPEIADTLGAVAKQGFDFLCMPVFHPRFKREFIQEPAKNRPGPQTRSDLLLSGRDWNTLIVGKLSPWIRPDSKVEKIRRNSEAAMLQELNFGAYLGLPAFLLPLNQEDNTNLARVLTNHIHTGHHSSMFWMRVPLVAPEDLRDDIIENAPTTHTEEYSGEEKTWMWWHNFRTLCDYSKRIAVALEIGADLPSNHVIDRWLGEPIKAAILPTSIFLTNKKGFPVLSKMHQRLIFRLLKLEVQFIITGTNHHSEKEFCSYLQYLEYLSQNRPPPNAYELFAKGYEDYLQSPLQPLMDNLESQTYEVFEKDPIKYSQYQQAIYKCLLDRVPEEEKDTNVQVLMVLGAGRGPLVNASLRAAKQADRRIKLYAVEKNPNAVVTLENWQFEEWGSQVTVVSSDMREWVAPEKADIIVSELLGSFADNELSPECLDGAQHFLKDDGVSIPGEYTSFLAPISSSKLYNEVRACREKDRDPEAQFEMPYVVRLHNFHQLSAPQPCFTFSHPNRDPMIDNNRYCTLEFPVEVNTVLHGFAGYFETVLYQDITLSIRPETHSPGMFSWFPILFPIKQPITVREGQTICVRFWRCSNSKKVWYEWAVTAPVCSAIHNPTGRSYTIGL
PRMT5/MEP50 complex, sequence (Q9BQA1 whole entry, further chain, the tested form may be a part): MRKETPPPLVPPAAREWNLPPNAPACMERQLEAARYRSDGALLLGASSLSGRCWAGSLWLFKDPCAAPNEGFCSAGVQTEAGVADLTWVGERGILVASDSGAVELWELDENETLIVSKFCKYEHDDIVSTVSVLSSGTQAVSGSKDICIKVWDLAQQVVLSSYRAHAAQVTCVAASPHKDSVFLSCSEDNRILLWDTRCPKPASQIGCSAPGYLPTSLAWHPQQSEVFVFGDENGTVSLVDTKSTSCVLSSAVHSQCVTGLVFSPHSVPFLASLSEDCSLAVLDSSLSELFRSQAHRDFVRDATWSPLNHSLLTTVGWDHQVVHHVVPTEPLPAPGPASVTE

Protein arginine N-methyltransferase 5, sequence (O14744 whole entry, the tested form may be a part): as the sequence (O14744 whole entry, the tested form may be a part) above

SMILES	EC50 [1] [µM]	EC50 [2] [µM]	IC50 (PRMT5/MEP50 complex) [µM]
C[C@@H](Oc1cccc2cccnc12)C(=O)NC[C@H](O)CN1Cc2ccccc2C1	1 to 10	0.101 to 1	< 0.1
CN(C)S(=O)(=O)c1ccccc1OCC(=O)NCC(O)CN1Cc2ccccc2C1 (stereo not drawn)	1 to 10	0.101 to 1	< 0.1
O=C(COc1cccc2cccnc12)NCC(O)CN1Cc2ccccc2C1 (stereo not drawn)	> 20	1 to 10	0.101 to 1
O=C(COc1ccccc1-c1cc[nH]n1)NCC(O)CN1Cc2ccccc2C1 (stereo not drawn)	> 20	0.101 to 1	0.101 to 1
O=C(NCC(O)CN1Cc2ccccc2C1)c1cccc(-c2ccccn2)c1 (stereo not drawn)	> 20	1 to 10	0.101 to 1
C[C@H](Oc1cccc2cccnc12)C(=O)NC[C@@H](O)CN1Cc2ccccc2C1	> 20	0.101 to 1	0.101 to 10
